# In patent US20240287080A1 (IDEAYA Biosciences Inc., priority 2021, published 2024):
# Molecular target: T1, Pol theta (1-899) (Homo sapiens, UniProt O75417)
# T1 construct: Pol theta (1-899) (5 nM) in assay buffer
# Experiment: Pol theta ATPase activity, NADH oxidation-coupled enzymatic assay (ATPase NADH coupling: Standard Screening: hPolQ)
# Assay type: biochemical
# Conditions: Pol theta (1-899) 5 nM, NADH oxidation-coupled ATPase assay; compounds of Table 3
# Procedure, shortened: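 Rates of ATP hydrolysis taken from 60-min A340 traces of NADH oxidation via PK/LDH coupling, then fit four-parameter for IC50, Hill slope and max inhibition. Enzyme (5 nM, 1-899) and compounds preincubated 15 min before ATP 100 μM and 50-thymine ssDNA 300 nM (stock, equal volume added).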
# T1 sequence (O75417 1-899): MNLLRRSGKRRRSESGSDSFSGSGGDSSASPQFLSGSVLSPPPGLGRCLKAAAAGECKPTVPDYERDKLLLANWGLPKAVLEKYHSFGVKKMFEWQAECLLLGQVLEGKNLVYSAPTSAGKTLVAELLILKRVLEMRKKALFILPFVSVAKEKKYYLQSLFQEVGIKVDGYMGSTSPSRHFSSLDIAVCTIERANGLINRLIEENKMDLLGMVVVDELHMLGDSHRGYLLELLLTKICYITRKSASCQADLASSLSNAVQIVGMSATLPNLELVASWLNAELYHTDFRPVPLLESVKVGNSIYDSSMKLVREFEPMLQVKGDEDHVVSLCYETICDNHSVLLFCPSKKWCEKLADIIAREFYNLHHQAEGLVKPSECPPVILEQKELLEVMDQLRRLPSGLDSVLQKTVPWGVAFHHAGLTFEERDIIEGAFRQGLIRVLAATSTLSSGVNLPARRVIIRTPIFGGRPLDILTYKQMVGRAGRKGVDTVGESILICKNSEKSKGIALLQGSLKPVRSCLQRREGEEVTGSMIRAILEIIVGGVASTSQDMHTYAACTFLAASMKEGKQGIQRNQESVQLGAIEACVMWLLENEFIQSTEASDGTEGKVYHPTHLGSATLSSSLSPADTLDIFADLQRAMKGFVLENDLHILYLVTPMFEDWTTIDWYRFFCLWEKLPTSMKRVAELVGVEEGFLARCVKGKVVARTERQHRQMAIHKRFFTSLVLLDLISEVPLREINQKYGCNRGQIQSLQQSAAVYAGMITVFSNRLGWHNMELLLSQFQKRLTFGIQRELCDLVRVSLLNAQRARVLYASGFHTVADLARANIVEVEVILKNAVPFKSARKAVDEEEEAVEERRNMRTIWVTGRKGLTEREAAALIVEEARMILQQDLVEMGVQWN
row,IC50 [nM],SMILES
1,1000 to 10000,"CNC(=O)c1cncc(-c2cc(C)ncc2C(=O)Nc2nnc(OC)s2)c1 [Example 339, N3′-(5-methoxy-1,3,4-thiadiazol-2-yl)-N5,6′-dimethyl-[3,4′-bipyridine]-3′,5-dicarboxamide]"
2,1000 to 10000,"COc1nnc(NC(=O)c2cnc(C)cc2-c2ccco2)s1 [Example 391, 4-(furan-2-yl)-N-(5-methoxy-1,3,4-thiadiazol-2-yl)-6-methylpyridine-3-carboxamide]"
3,1000 to 10000,"CCc1ccc(-c2cc(C)ncc2C(=O)Nc2nnc(OC)s2)cc1 [Example 459, 4-(4-ethylphenyl)-N-(5-methoxy-1,3,4-thiadiazol-2-yl)-6-methylpyridine-3-carboxamide]"
4,≤ 200,"COc1nnc(NC(=O)c2cnc(C)cc2-c2ccc(OC(C)C)c(C#N)c2)s1 [Example 473, 4-[3-cyano-4-(propan-2-yloxy)phenyl]-N-(5-methoxy-1,3,4-thiadiazol-2-yl)-6-methylpyridine-3-carboxamide]"
5,1000 to 10000,"COc1nnc(NC(=O)c2cnc(C)cc2-c2cccc(O)c2)s1 [Example 452, 4-(3-hydroxyphenyl)-N-(5-methoxy-1,3,4-thiadiazol-2-yl)-6-methylpyridine-3-carboxamide]"
6,1000 to 10000,"COc1nnc(NC(=O)c2cnc(C)cc2-c2ccc3ncncc3c2)s1 [Example 470, N-(5-methoxy-1,3,4-thiadiazol-2-yl)-6-methyl-4-(quinazolin-6-yl)pyridine-3-carboxamide]"
7,200 to 500,"COc1nnc(NC(=O)c2cnc(C)cc2-c2cccc3ncccc23)s1 [Example 485, N-(5-methoxy-1,3,4-thiadiazol-2-yl)-6-methyl-4-(quinolin-5-yl)nicotinamide]"
8,1000 to 10000,"COc1nnc(NC(=O)c2cnc(C)cc2-c2ccc3nc[nH]c3c2)s1 [Example 490, 4-(1H-1,3-benzodiazol-6-yl)-N-(5-methoxy-1,3,4-thiadiazol-2-yl)-6-methylpyridine-3-carboxamide]"
9,≤ 200,"COc1nnc(NC(=O)c2cnc(C(F)F)cc2-c2cc(Cl)ncc2OC)s1 [Example 281, 2′-chloro-6-(difluoromethyl)-5′-methoxy-N-(5-methoxy-1,3,4-thiadiazol-2-yl)-[4,4′-bipyridine]-3-carboxamide]"
10,1000 to 10000,"COc1nnc(NC(=O)c2cnc(C)cc2-c2cccc(-c3ccn(C)n3)c2)s1 [Example 453, N-(5-methoxy-1,3,4-thiadiazol-2-yl)-6-methyl-4-[3-(1-methyl-1H-pyrazol-3-yl)phenyl]pyridine-3-carboxamide]"
11,≤ 200,"COc1nnc(NC(=O)c2ccc(F)cc2-c2cc(Cl)ncc2OC)s1 [Example 266, 2-(2-chloro-5-methoxypyridin-4-yl)-4-fluoro-N-(5-methoxy-1,3,4-thiadiazol-2-yl)benzamide]"
12,1000 to 10000,"COc1nnc(NC(=O)c2cnc(C)cc2-c2ccc3c(c2)CC(=O)N3)s1 [Example 347, N-(5-methoxy-1,3,4-thiadiazol-2-yl)-6-methyl-4-(2-oxo-2,3-dihydro-1H-indol-5-yl)pyridine-3-carboxamide]"
13,≤ 200,"COc1cnc(C)c(F)c1-c1cc(C)ncc1C(=O)Nc1nnc(OC2([C@@H]3CCOC3)CC2)s1 (single isomer, unassigned) [Example 293]"
14,≤ 200,"COc1nnc(NC(=O)c2cnc(C)cc2-c2cc(Cl)c([S@@+]([O-])C3CC3)cc2OC)s1 (single isomer, unassigned) [Example 318]"
15,1000 to 10000,"CNC(=O)c1cccc(-c2cc(C)ncc2C(=O)Nc2nnc(OC)s2)c1 [Example 343, N-(5-methoxy-1,3,4-thiadiazol-2-yl)-6-methyl-4-[3-(methylcarbamoyl)phenyl]pyridine-3-carboxamide]"
16,500 to 1000,"COc1nnc(NC(=O)c2cnc(C)cc2-c2cccc(F)c2)s1 [Example 421, 4-(3-fluorophenyl)-N-(5-methoxy-1,3,4-thiadiazol-2-yl)-6-methylpyridine-3-carboxamide]"
17,1000 to 10000,"COc1nnc(NC(=O)c2cnc(C)cc2-c2ccccc2C(C)C)s1 [Example 392, N-(5-methoxy-1,3,4-thiadiazol-2-yl)-6-methyl-4-[2-(propan-2-yl)phenyl]pyridine-3-carboxamide]"
18,1000 to 10000,"COc1nnc(NC(=O)c2cnc(C)cc2-c2ccc(S(C)(=O)=O)cc2)s1 [Example 371, N-(5-methoxy-1,3,4-thiadiazol-2-yl)-6-methyl-4-(4-(methylsulfonyl)phenyl)nicotinamide]"
19,1000 to 10000,"COc1nnc(NC(=O)c2cnc(C)cc2-c2ccc(C(C)(C)C)cc2)s1 [Example 356, 4-(4-(tert-butyl)phenyl)-N-(5-methoxy-1,3,4-thiadiazol-2-yl)-6-methylnicotinamide]"

# Same assay, conditions: Table 4; Pol theta (1-899) 5 nM, ATP, dT50 ssDNA
row,IC50 [nM],SMILES
1,≤ 200,"COc1cnc(Cl)cc1-c1cc(C)ncc1C(=O)Nc1nnc(OCC(C)(F)F)s1 [Example 20, 6′-chloro-N-(5-(2,2-difluoropropoxy)-1,3,4-thiadiazol-2-yl)-3′-methoxy-6-methyl-4,4′-bipyridine-3-carboxamide]"
2,≤ 200,"COc1cnc(Cl)cc1-c1cc(C)ncc1C(=O)Nc1nnc(OCC(F)(F)F)s1 [Example 29, 2′-chloro-5′-methoxy-6-methyl-N-(5-(2,2,2-trifluoroethoxy)-1,3,4-thiadiazol-2-yl)-(4,4′-bipyridine)-3-carboxamide]"
3,≤ 200,"Cc1cc(-c2cc(Cl)ncc2OC(F)F)c(C(=O)Nc2nnc(OC3COC3)s2)cn1 [Example 62, 2′-chloro-5′-(difluoromethoxy)-6-methyl-N-(5-(oxetan-3-yloxy)-1,3,4-thiadiazol-2-yl)-(4,4′-bipyridine)-3-carboxamide]"
4,≤ 200,"COc1cnc(Cl)cc1-c1cc(C)ncc1C(=O)Nc1nnc(OC2COC2)s1 [Example 13, 2′-chloro-5′-methoxy-6-methyl-N-(5-(oxetan-3-yloxy)-1,3,4-thiadiazol-2-yl)-(4,4′-bipyridine)-3-carboxamide]"
5,200 to 500,"COc1nnc(NC(=O)c2cnc(C)cc2-c2cc(Cl)ccc2CO)s1 [Example 66, 4-(5-chloro-2-(hydroxymethyl)phenyl)-N-(5-methoxy-1,3,4-thiadiazol-2-yl)-6-methylnicotinamide]"

# Same assay, conditions: Table 5; Pol theta (1-899) 5 nM, ATP, dT50 ssDNA
row,IC50 [nM],SMILES
1,500 to 1000,"COc1nnc(NC(=O)c2cnc(OC3CC3)cc2-c2cc(Cl)ncc2OC)s1 [Example 196, 2′-chloro-6-cyclopropoxy-5′-methoxy-N-(5-methoxy-1,3,4-thiadiazol-2-yl)-(4,4′-bipyridine)-3-carboxamide]"
2,≤ 200,"COc1cnc(Cl)cc1-c1cc(C)ncc1C(=O)Nc1nnc(O[C@H]2CCO[C@@H]2C)s1 (single isomer, unassigned) [Example 115]"
3,500 to 1000,"COc1cnc(Cl)cc1-c1cc(OC2CC2)ncc1C(=O)Nc1nnc(O[C@@H]2CCOC2)s1 [Example 193, (R)-2′-chloro-6-cyclopropoxy-5′-methoxy-N-(5-((tetrahydrofuran-3-yl)oxy)-1,3,4-thiadiazol-2-yl)-(4,4′-bipyridine)-3-carboxamide]"
4,≤ 200,"COCc1cc(-c2cc(Cl)ncc2OC)c(C(=O)Nc2nnc(O[C@@H]3CCOC3)s2)cn1 [Example 142, (R)-2′-chloro-5′-methoxy-6-(methoxymethyl)-N-(5-((tetrahydrofuran-3-yl)oxy)-1,3,4-thiadiazol-2-yl)-(4,4′-bipyridine)-3-carboxamide]"
5,≤ 200,"COc1nnc(NC(=O)c2cnc(COC3CC3)cc2-c2cc(Cl)ncc2OC)s1 [Example 215, 2′-chloro-6-(cyclopropoxymethyl)-5′-methoxy-N-(5-methoxy-1,3,4-thiadiazol-2-yl)-(4,4′-bipyridine)-3-carboxamide]"
6,≤ 200,"COc1cnc(Cl)cc1-c1cc(C)ncc1C(=O)Nc1nnc(O[C@@H]2COC3(CC3)C2)s1 (single isomer, unassigned) [Example 228]"
7,≤ 200,"COc1cnc(Cl)cc1-c1cc(C)ncc1C(=O)Nc1nnc(O[C@H]2CC[C@H](OC)CC2)s1 (single isomer, unassigned) [Example 125, 2′-chloro-5′-methoxy-N-(5-(((1r,4r)-4-methoxycyclohexyl)oxy)-1,3,4-thiadiazol-2-yl)-6-methyl-(4,4′-bipyridine)-3-carboxamide]"
8,≤ 200,"COc1cnc(Cl)cc1-c1cc(C)ncc1C(=O)Nc1nnc(OC2CCC3(CCCO3)CC2)s1 (single isomer, unassigned) [Example 173, N-(5-(((5s,8r)-1-oxaspiro(4.5)decan-8-yl)oxy)-1,3,4-thiadiazol-2-yl)-2′-chloro-5′-methoxy-6-methyl-(4,4′-bipyridine)-3-carboxamide]"
9,≤ 200,"COCc1cc(-c2cc(Cl)ncc2OC)c(C(=O)Nc2nnc(OC)s2)cn1 [Example 158, 2′-chloro-5′-methoxy-N-(5-methoxy-1,3,4-thiadiazol-2-yl)-6-(methoxymethyl)-(4,4′-bipyridine)-3-carboxamide]"
10,≤ 200,"COc1cnc(Cl)c(F)c1-c1cc(C)ncc1C(=O)Nc1nnc(O[C@H]2CCOC2)s1 [Example 81, 2′-chloro-3′-fluoro-5′-methoxy-6-methyl-N-(5-(((S)-tetrahydrofuran-3-yl)oxy)-1,3,4-thiadiazol-2-yl)-(4,4′-bipyridine)-3-carboxamide]"

row,SMILES,IC50 [nM]
1,"COc1cnc(Cl)cc1-c1cc(C)ncc1C(=O)Nc1nnc(OC2CC(C)(O)C2)s1 (mixture of isomers) [Example 176, 2′-chloro-N-(5-(3-hydroxy-3-methylcyclobutoxy)-1,3,4-thiadiazol-2-yl)-5′-methoxy-6-methyl-(4,4′-bipyridine)-3-carboxamide]",≤ 200
2,"COc1cnc(Cl)c(F)c1-c1cc(C)ncc1C(=O)Nc1nnc(O[C@H]2C[C@H](OC)C2)s1 (single isomer, unassigned) [Example 151, 2′-chloro-3′-fluoro-5′-methoxy-N-(5-((1r,3r)-3-methoxycyclobutoxy)-1,3,4-thiadiazol-2-yl)-6-methyl-(4,4′-bipyridine)-3-carboxamide]",≤ 200
